The values that follow come from patent publication US9624217B2, “Dihydropyrrolopyridine inhibitors of ROR-gamma” (Vitae Pharmaceuticals, Inc., priority 2014, dated 2017).

The experiment addresses recombinant RORγ Ligand Binding Domain (LBD) (Homo sapiens (Human), UniProt P51449). The experiment is described as follows: Radio-Ligand RORγ Binding Assay (Assay 1). To be noted: SPA competition with 25-hydroxy [26,27-3H]-cholesterol, cell-free; read-out: RORγ Binding Ki Range. The method, then:
Radio-Ligand RORγ Binding Assay (Assay 1)
Compounds of the present invention were tested for ability to bind to RORγ in a cell-free competition assay with commercially available radio-ligand (RL), 25-hydroxy [26,27-^3H]-cholesterol (PerkinElmer, Cat. #NET674250UC), for a ligand binding site on a recombinant RORγ Ligand Binding Domain (LBD) protein expressed as a 6×His-Glutathione-S-Transferase (GST) fusion. […] The plate was shaken at 700 rpm for 20 min and incubated for 10 min at rt, after which 40 μL of poly-Lys YSi SPA beads (PerkinElmer, Cat. #RPNQ0010) were added to achieve 50 μg of the beads per well. The plate was incubated on an orbital shaker for 20 min and then for 10 min without agitation at rt. SPA signal for tritium beta radiation was registered on PerkinElmer Microbeta plate reader. […] The percent inhibition vs. concentration data were fit into a four-parameter model, and IC50 values were calculated from the fit as the concentrations corresponding to the inflection points on the dose-response curves.

recombinant RORγ Ligand Binding Domain (LBD), sequence (P51449 269-508): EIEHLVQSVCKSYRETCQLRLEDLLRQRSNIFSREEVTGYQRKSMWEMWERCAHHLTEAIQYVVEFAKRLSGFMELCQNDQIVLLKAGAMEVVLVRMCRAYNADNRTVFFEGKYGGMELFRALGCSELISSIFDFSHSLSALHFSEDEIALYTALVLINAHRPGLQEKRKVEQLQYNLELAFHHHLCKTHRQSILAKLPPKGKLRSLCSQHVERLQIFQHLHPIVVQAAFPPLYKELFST

Regarding `CC(C)[C@H]1c2ncc(C(=O)NCCC3CCS(=O)(=O)CC3)cc2CN1Cc1ccc(C(F)(F)F)cc1` [Compound 62], the inhibition constant Ki (as a rule, the equilibrium dissociation constant of an inhibitor or competing ligand from its target) is over 1000 nM.
With `CCS(=O)(=O)CCNC(=O)c1cnc2c(c1)CN(Cc1ccc(C(F)(F)F)cc1)[C@H]2C(C)C` [Compound 86] the figure was over 1000 nM; with `COC(=O)C(Cc1cc(=O)[nH]c2ccccc12)NC(=O)c1cnc2c(c1)CN(Cc1ccc(C(F)(F)F)cc1)[C@H]2C(C)C` (some centres unmarked) [Compound 135], over 1000 nM.
`CCS(=O)(=O)c1ccc(CNC(=O)c2cnc3c(c2)CN(C[C@H]2CC[C@H](C(=O)OC)CC2)[C@H]3C(C)C)cc1` [Compound 44]: the Ki is under 100 nM.
Regarding `CC(C)[C@H]1c2ncc(C(=O)NCCN3CCN(C)CC3)cc2CN1Cc1ccc(C(F)(F)F)cc1` [Compound 99], the Ki was over 1000 nM.
The same measure for `CC(C)[C@H]1c2ncc(C(=O)NCCC3CN(C(=O)OC(C)(C)C)C3)cc2CN1Cc1ccc(C(F)(F)F)cc1` [Compound 66]: over 1000 nM; for `CC(C)NC(=O)c1cnc2c(c1)CN(Cc1ccc(C(F)(F)F)cc1)[C@H]2C(C)C` [Compound 122]: over 1000 nM.
With `CNC(=O)[C@H]1CC[C@H](CNC(=O)c2cnc3c(c2)CN(Cc2ccc(C(F)(F)F)cc2)[C@H]3C(C)C)CC1` [Compound 108], the Ki was over 1000 nM.
With `CC(C)[C@H]1c2ncc(C(=O)N[C@H]3c4ccccc4C[C@H]3O)cc2CN1Cc1ccc(C(F)(F)F)cc1` [Compound 132] the figure was 100 to 1000 nM; with `COC(=O)N1CC(CNC(=O)c2cnc3c(c2)CN(Cc2ccc(C(F)(F)F)cc2)[C@H]3C(C)C)C1` [Compound 105], over 1000 nM.
As to `CC(C)[C@H]1c2ncc(C(=O)NC(Cc3ccc(F)cc3)C(=O)O)cc2CN1Cc1ccc(C(F)(F)F)cc1` (some centres unmarked) [Compound 138], the Ki is over 1000 nM.
For the compound `COC(=O)c1ccc(CNC(=O)c2cnc3c(c2)CN(Cc2ccc(C(F)(F)F)cc2)[C@H]3C(C)C)cc1` [Compound 65, Methyl (S)-4-((7-isopropyl-6-(4-(trifluoromethyl)benzyl)-6,7-dihydro-5H-pyrrolo[3,4-b]pyridine-3-carboxamido)methyl)benzoate], the Ki lay in the range of 100 to 1000 nM.
As to `CC(C)[C@H]1c2ncc(C(=O)NCC(c3ccc(C(F)(F)F)cc3)N3CCOCC3)cc2CN1Cc1ccc(C(F)(F)F)cc1` (some centres unmarked) [Compound 93], the Ki was over 1000 nM.
As for `CC(C)[C@H]1c2ncc(C(=O)N[C@@H](CCO)c3ccc(Cl)cc3)cc2CN1Cc1ccc(C(F)(F)F)cc1` [Compound 71], the Ki lay within 100 to 1000 nM.
As for `COC(=O)C1(CNC(=O)c2cnc3c(c2)CN(Cc2ccc(C(F)(F)F)cc2)[C@H]3C(C)C)CCOCC1` [Compound 134], the Ki is over 1000 nM.
Turning to `CC(C)[C@H]1c2ncc(C(=O)NCc3ccnnc3)cc2CN1Cc1ccc(C(F)(F)F)cc1` [Compound 83], the Ki lay in the range of 100 to 1000 nM.
Regarding `CC(C)[C@H]1c2ncc(C(=O)NCCc3ccnc(O)c3)cc2CN1Cc1ccc(C(F)(F)F)cc1` [Compound 101], the inhibition constant (Ki) is over 1000 nM.
With `CC(C)[C@H]1c2ncc(C(=O)NC(CC(=O)O)c3ccc(Br)cc3)cc2CN1Cc1ccc(C(F)(F)F)cc1` (some centres unmarked) [Compound 140] the figure was over 1000 nM; with `CCS(=O)(=O)N1CC(CNC(=O)c2cnc3c(c2)CN(Cc2ccc(C(F)(F)F)cc2)[C@H]3C(C)C)C1` [Compound 104], 100 to 1000 nM.
With `CC(C)[C@H]1c2ncc(C(=O)NC(CO)c3ccc(Br)cc3)cc2CN1Cc1ccc(C(F)(F)F)cc1` (some centres unmarked) [Compound 123] the figure was 100 to 1000 nM.
Regarding `COC(=O)C(Cc1ccc(F)cc1)NC(=O)c1cnc2c(c1)CN(Cc1ccc(C(F)(F)F)cc1)[C@H]2C(C)C` (some centres unmarked) [Compound 126], the Ki is over 1000 nM.
With `CC(C)[C@H]1c2ncc(C(=O)NCC(F)(F)F)cc2CN1Cc1ccc(C(F)(F)F)cc1` [Compound 117], the Ki is over 1000 nM.
Turning to `CC(C)[C@H]1c2ncc(C(=O)N[C@H](C)c3ccc(Br)cc3)cc2CN1Cc1ccc(C(F)(F)F)cc1` [Compound 119], the Ki is over 1000 nM.
Take `CC(C)[C@H]1c2ncc(C(=O)NC[C@@H]3CCN(C(=O)OC(C)(C)C)C[C@H]3O)cc2CN1Cc1ccc(C(F)(F)F)cc1` [Compound 156]: the Ki is over 1000 nM.
With `CC(C)[C@H]1c2ncc(C(=O)NCC3CCN(S(C)(=O)=O)C3)cc2CN1Cc1ccc(C(F)(F)F)cc1` (some centres unmarked) [Compound 154] the figure was over 1000 nM; with `CC(C)[C@H]1c2ncc(C(=O)NCC3COCCO3)cc2CN1Cc1ccc(C(F)(F)F)cc1` (some centres unmarked) [Compound 85], over 1000 nM.
For `CC(C)[C@H]1c2ncc(C(=O)NCCCn3ccnc3)cc2CN1Cc1ccc(C(F)(F)F)cc1` [Compound 96], the inhibition constant (Ki) was over 1000 nM.
On to `CC(C)[C@H]1c2ncc(C(=O)N[C@H](CO)c3ccc(C#N)cc3)cc2CN1Cc1ccc(C(F)(F)F)cc1` [Compound 158], for which the inhibition constant Ki lay within 100 to 1000 nM.
The same measure for `CC(C)[C@@H]1c2ncc(C(=O)NCc3ccc(S(C)(=O)=O)cc3)cc2CN1Cc1ccc(C(F)(F)F)cn1` [Compound 37]: over 1000 nM; for `CC(C)[C@H]1c2ncc(C(=O)NCCC3CN(S(C)(=O)=O)C3)cc2CN1Cc1ccc(C(F)(F)F)cc1` [Compound 152]: over 1000 nM; for `CC(C)[C@H]1c2ncc(C(=O)NCc3cccc(S(C)(=O)=O)c3)cc2CN1Cc1ccc(C(F)(F)F)cc1` [Compound 116]: 100 to 1000 nM.
With `CC(C)[C@H]1c2ncc(C(=O)NCC3CN(S(C)(=O)=O)C3)cc2CN1Cc1ccc(C(F)(F)F)cc1` [Compound 153] the figure was over 1000 nM; with `CC(C)[C@H]1c2ncc(C(=O)NCC3(O)CCC4(CC3)OCCO4)cc2CN1Cc1ccc(C(F)(F)F)cc1` [Compound 118], over 1000 nM; with `CC(C)[C@H]1c2ncc(C(=O)NCC3(CC(=O)O)CCCCC3)cc2CN1Cc1ccc(C(F)(F)F)cc1` [Compound 145], over 1000 nM.
For `CC(C)[C@H]1c2ncc(C(=O)NCC3CCN(C)CC3)cc2CN1Cc1ccc(C(F)(F)F)cc1` [Compound 100], the Ki is over 1000 nM.
Consider `CC(C)[C@H]1c2ncc(C(=O)N[C@H]3c4ccccc4C[C@H]3O)cc2CN1Cc1ccc(C(F)(F)F)cc1` [Compound 131], for which the Ki is 100 to 1000 nM.
`CC(C)[C@H]1c2ncc(C(=O)NCCN3CCOCC3)cc2CN1Cc1ccc(C(F)(F)F)cc1` [Compound 77]: the Ki was over 1000 nM.
For `CC(O)C(=O)N1CCC(CNC(=O)c2cnc3c(c2)CN(Cc2ccc(C(F)(F)F)cc2)[C@H]3C(C)C)CC1` (some centres unmarked) [Compound 112], the Ki is over 1000 nM.
The same measure for `COC(=O)CC1(CNC(=O)c2cnc3c(c2)CN(Cc2ccc(C(F)(F)F)cc2)[C@H]3C(C)C)CCCCC1` [Compound 137]: over 1000 nM; for `CC(C)[C@H]1c2ncc(C(=O)NCc3cccnn3)cc2CN1Cc1ccc(C(F)(F)F)cc1` [Compound 84]: over 1000 nM.
The same measure for `CC(C)[C@H]1c2ncc(C(=O)NCc3ccc(S(C)(=O)=O)cc3)cc2CN1Cc1ccc(C(F)(F)F)cn1` [Compound 36]: 100 to 1000 nM.
On to `CC(C)[C@@H]1c2ncc(C(=O)NCc3ccc(S(C)(=O)=O)cc3)cc2CN1Cc1ccc(Cl)cc1` [Compound 18], for which the Ki is over 1000 nM.
Regarding `CC(C)[C@H]1c2ncc(C(=O)NCc3cn4cccnc4n3)cc2CN1Cc1ccc(C(F)(F)F)cc1` [Compound 69], the Ki is over 1000 nM.
Turning to `CC(C)[C@H]1c2ncc(C(=O)NCC3(c4ccc(Cl)cc4)CC3)cc2CN1Cc1ccc(C(F)(F)F)cc1` [Compound 80], the Ki was over 1000 nM.
